Reference: patent US20210115040A1, “OGA INHIBITOR COMPOUNDS” (Janssen Pharmaceutica NV, priority 2018, published 2021)

How the values were obtained:
[1] = molecular target: T1, recombinant human Meningioma Expressed Antigen 5 (MGEA5), also referred to as O-GlcNAcase (OGA) (Homo sapiens, UniProt O60502); assay: OGA biochemical assay (inhibition of FM-GlcNAc hydrolysis, fluorescence); conditions: FM-GlcNAc substrate; for IC50: 6 h at room temperature, read-out: Enzymatic hOGA, pIC50 (converted); for Emax / Enzymatic Emax (%): maximal effect; for Emax: read-out: Enzymatic Emax (%)
T1 construct: Full length OGA enzyme was purchased at OriGene (cat #TP322411); purchased OriGene TP322411
T1 sequence (O60502 1-916): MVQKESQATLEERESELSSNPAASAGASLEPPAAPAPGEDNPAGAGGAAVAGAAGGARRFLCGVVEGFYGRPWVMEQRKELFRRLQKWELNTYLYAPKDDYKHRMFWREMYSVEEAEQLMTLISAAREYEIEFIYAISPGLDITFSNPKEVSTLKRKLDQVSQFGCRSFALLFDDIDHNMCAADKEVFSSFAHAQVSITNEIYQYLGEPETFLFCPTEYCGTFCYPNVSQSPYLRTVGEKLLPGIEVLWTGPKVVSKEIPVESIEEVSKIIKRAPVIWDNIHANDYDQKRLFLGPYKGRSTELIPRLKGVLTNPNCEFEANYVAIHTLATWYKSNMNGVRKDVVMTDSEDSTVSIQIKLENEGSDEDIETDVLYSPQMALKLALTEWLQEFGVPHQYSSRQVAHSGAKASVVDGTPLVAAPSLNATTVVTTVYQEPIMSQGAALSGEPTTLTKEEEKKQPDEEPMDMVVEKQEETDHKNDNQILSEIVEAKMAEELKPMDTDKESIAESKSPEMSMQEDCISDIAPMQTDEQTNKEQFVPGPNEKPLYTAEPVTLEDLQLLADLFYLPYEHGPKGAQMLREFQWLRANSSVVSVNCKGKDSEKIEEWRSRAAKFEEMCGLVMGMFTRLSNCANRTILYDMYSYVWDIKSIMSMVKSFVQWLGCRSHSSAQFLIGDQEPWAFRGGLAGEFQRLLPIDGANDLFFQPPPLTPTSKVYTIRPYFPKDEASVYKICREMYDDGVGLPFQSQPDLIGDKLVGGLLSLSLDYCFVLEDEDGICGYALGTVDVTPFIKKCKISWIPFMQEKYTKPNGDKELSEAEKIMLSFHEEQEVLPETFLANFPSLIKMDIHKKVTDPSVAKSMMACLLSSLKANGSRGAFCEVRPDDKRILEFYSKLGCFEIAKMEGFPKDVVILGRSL
From the text: The assay is based on the inhibition of the hydrolysis of fluorescein mono-β-D-N-Acetyl-Glucosamine (FM-GlcNAc) (Mariappa et al. 2015, Biochem J 470:255) by the recombinant human Meningioma Expressed Antigen 5 (MGEA5), also referred to as O-GlcNAcase (OGA). The hydrolysis FM-GlcNAc (Marker Gene technologies, cat #M1485) results in the formation of β-D-N-glucosamineacetate and fluorescein. The fluorescence of the latter can be measured at excitation wavelength 485 nm and emission wavelength 538 nm. An increase in enzyme activity results in an increase in fluorescence signal. Full length OGA enzyme was purchased at OriGene (cat #TP322411). The enzyme was stored in 25 mM Tris.HCl, pH 7.3, 100 mM glycine, 10% glycerol at −20° C. Thiamet G and GlcNAcStatin were tested as reference compounds (Yuzwa et al. 2008 Nature Chemical Biology 4:483; Yuzwa et al. 2012 Nature Chemical Biology 8:393). The assay was performed in 200 mM Citrate/phosphate buffer supplemented with 0.005% Tween-20. 35.6 g Na2HPO4 2H2O (Sigma, #C0759) were dissolved in 1 L water to obtain a 200 mM solution. 19.2 g citric acid (Merck, #1.06580) was dissolved in 1 L water to obtain a 100 mM solution. pH of the sodiumphosphate solution was adjusted with the citric acid solution to 7.2. The buffer to stop the reaction consists of a 500 mM Carbonate buffer, pH 11.0. 734 mg FM-GlcNAc were dissolved in 5.48 mL DMSO to obtain a 250 mM solution and was stored at −20° C. OGA was used at a 2 nM concentration and FM-GlcNAc at a 100 uM final concentration. Dilutions were prepared in assay buffer.
50 nl of a compound dissolved in DMSO was dispensed on Black Proxiplate™ 384 Plus Assay plates (Perkin Elmer, #6008269) and 3 μl fl-OGA enzyme mix added subsequently. Plates were pre-incubated for 60 min at room temperature and then 2 μl FM-GlcNAc substrate mix added. […] Plates were briefly centrifuged for 1 min at 1000 rpm and incubate at room temperature for 6 h. To stop the reaction 5 μl STOP buffer were added and plates centrifuge again 1 min at 1000 rpm. Fluorescence was quantified in the Thermo Scientific Fluoroskan Ascent or the PerkinElmer EnVision with excitation wavelength 485 nm and emission wavelength 538 nm.
For analysis a best-fit curve is fitted by a minimum sum of squares method. From this an IC50 value and Hill coefficient was obtained. High control (no inhibitor) and low control (saturating concentrations of standard inhibitor) were used to define the minimum and maximum values.

[2] = molecular target: T2, OGA (Homo sapiens, UniProt O60502); assay: OGA cellular assay (ICC detection of O-GlcNAcylated proteins in HEK293 cells inducible for P301L mutant human Tau); format: cell-based; conditions: for Emax: HEK293, HEK293 cells inducible for P301L mutant human Tau; for Emax / Cellular Emax (%): maximum = Thiamet G 200 uM; for EC50: read-out: Cellular hOGA, pEC50 (converted)
T2 construct: HEK293 cells inducible for P301L mutant human Tau (isoform 2N4R) were established at Janssen; endogenous in cells; host or cells: HEK293 cells inducible for P301L mutant human Tau (2N4R)
T2 sequence (O60502 1-916): T1 sequence (O60502 1-916)
Experimental: HEK293 cells inducible for P301L mutant human Tau (isoform 2N4R) were established at Janssen. Thiamet-G was used for both plate validation (high control) and as reference compound (reference EC50 assay validation). OGA inhibition is evaluated through the immunocytochemical (ICC) detection of O-GlcNAcylated proteins by the use of a monoclonal antibody (CTD110.6; Cell Signaling, #9875) detecting 0-GlcNAcylated residues as previously described (Dorfmueller et al. 2010 Chemistry & biology, 17:1250). Inhibition of OGA will result in an increase of O-GlcNAcylated protein levels resulting in an increased signal in the experiment. Cell nuclei are stained with Hoechst to give a cell culture quality control and a rough estimate of immediate compounds toxicity, if any. ICC pictures are imaged with a Perkin Elmer Opera Phenix plate microscope and quantified with the provided software Perkin Elmer Harmony 4.1.
Cells were propagated in DMEM high Glucose (Sigma, #D5796) following standard procedures. 2 days before the cell assay cells are split, counted and seeded in Poly-D-Lysine (PDL) coated 96-wells (Greiner, #655946) plate at a cell density of 12,000 cells per cm^2 (4,000 cells per well) in 100 μl of Assay Medium (Low Glucose medium is used to reduce basal levels of GlcNAcylation) (Park et al. 2014 The Journal of biological chemistry 289:13519). At the day of compound test medium from assay plates was removed and replenished with 90 μl of fresh Assay Medium. 10 μl of compounds at a 10fold final concentration were added to the wells. Plates were centrifuged shortly before incubation in the cell incubator for 6 hours. DMSO concentration was set to 0.2%. Medium is discarded by applying vacuum. For staining of cells medium was removed and cells washed once with 100 μl D-PBS (Sigma, #D8537). From next step onwards unless other stated assay volume was always 50 μl and incubation was performed without agitation and at room temperature. Cells were fixed in 50 μl of a 4% paraformaldehyde (PFA, Alpha aesar, #043368) PBS solution for 15 minutes at room temperature. […] Before analysis samples were washed 2 times manually for 5 minutes in ICC base buffer.
Imaging is performed using Perkin Elmer Phenix Opera using a water 20× objective and recording 9 fields per well. Intensity readout at 488 nm is used as a measure of O-GlcNAcylation level of total proteins in wells. To assess potential toxicity of compounds nuclei were counted using the Hoechst staining. IC50-values are calculated using parametric non-linear regression model fitting. As a maximum inhibition Thiamet G at a 200 uM concentration is present on each plate. In addition, a concentration response of Thiamet G is calculated on each plate.

[3] = HEK293 cells inducible for P301L mutant human Tau, 6 hours incubation
[4] = HEK293 cells inducible for P301L mutant human Tau

| SMILES | IC50 [1] | Emax [1] | Emax [2] | EC50 [2, 3] | Enzymatic Emax (%) [1] | Cellular hOGA; pEC50 [2, 3] | Cellular Emax (%) [2, 4] |
| --- | --- | --- | --- | --- | --- | --- | --- |
| Cc1cc(O[C@@H]2CCN(C(C)c3ccc4sc(C)nc4n3)C2)cc(C)n1 (single isomer, unassigned) [Compound 74] | 158 nM |  |  |  | 97% | <6 | −4% |
| Cc1cc([C@H]2CCCN([C@@H](C)c3ccc4sc(C)nc4n3)C2)cc(C)n1 (racemic) [Compound 76] | 5.01 nM | 98% | 67% | 31.6 nM |  |  |  |
| COc1cc(CN[C@H]2CCCN(C(C)c3ccc4sc(C)nc4n3)C2)cc(C)n1 (some centres unmarked) [Compound 107] | 63.1 nM | 93% | 60% | 794 nM |  |  |  |
| Cc1cc(NCC2CCCN(C(C)c3ccc4sc(C)nc4n3)C2)cc(C)n1 (single isomer, unassigned) [Compound 106] | 5.01 nM | 99% | 92% | 6.31 nM |  |  |  |
| Cc1cc([C@H]2CCCN([C@H](C)c3ccc4sc(C)nc4n3)C2)nc(C)n1 (racemic) [Compound 70] | 63.1 nM | 98% | 55% | 794 nM |  |  |  |
| Cc1cc(OC[C@H]2CCCN([C@@H](C)c3ccc4sc(C)nc4n3)C2)nc(C)n1 [Compound 49a] | 2000 nM | 84% | -2% | > 1000 nM |  |  |  |
| Cc1cc(CO[C@@H]2CCCN(C(C)c3ccc4sc(C)nc4n3)C2)cc(C)n1 (single isomer, unassigned) [Compound 69] | 501 nM | 96% | -6% | > 1000 nM |  |  |  |
| Cc1cc(CO[C@H]2CCCN(C(C)c3ccc4sc(C)nc4n3)C2)cc(C)n1 (some centres unmarked) [Compound 66] | 39.8 nM | 100% | 55% | 501 nM |  |  |  |
| Cc1cc(O[C@@H]2CCN(C(C)c3nc4nc(C)sc4cc3F)C2)cc(C)n1 (some centres unmarked) [Compound 92] | 39.8 nM | 99% | 28% | > 1000 nM |  |  |  |
| Cc1cc(NCC2CCCN(C(C)c3ccc4sc(C)nc4n3)C2)cc(C)n1 (centres unmarked) [Compound 105] | 501 nM | 94% | 14% | > 1000 nM |  |  |  |
| Cc1cc(O[C@@H]2CCN(C(C)c3ccc4sc(C)nc4n3)C2)cc(C)n1 (single isomer, unassigned) [Compound 73] | > 10000 nM |  |  | > 1000 nM | 8% |  | −9% |
| Cc1cc(CO[C@H]2CCCN(C(C)c3cc4nc(C)sc4cc3F)C2)cc(C)n1 (single isomer, unassigned) [Compound 101] | 3.98 nM |  |  | 50.1 nM | 98% |  | 73% |

Now from value to compound:

| IC50 [1] | Emax [1] | Emax [2] | EC50 [2, 3] | Enzymatic Emax (%) [1] | Cellular hOGA; pEC50 [2, 3] | Cellular Emax (%) [2, 4] | SMILES |
| --- | --- | --- | --- | --- | --- | --- | --- |
| 25.1 nM | 98% | 66% | 501 nM |  |  |  | Cc1cc(CN[C@H]2CCCN(C(C)c3ccc4sc(C)nc4n3)C2)cc(C)n1 (some centres unmarked) [Compound 84] |
| 31.6 nM | 100% | 64% | 631 nM |  |  |  | Cc1cc(C[C@H]2CCCN(C(C)c3cnc4c(c3)nc(C)n4C)C2)cc(C)n1 (mixture of isomers) [Compound 11] |
| 20 nM | 102% | 77% | 200 nM |  |  |  | Cc1cc(C[C@@H]2CCN(C(C)c3nc4nc(C)sc4cc3F)C2)cc(C)n1 (mixture of isomers) [Compound 50] |
| 63.1 nM | 103% | 70% | 501 nM |  |  |  | Cc1cc(C[C@H]2CCCN(Cc3ccc4sc(C)nc4n3)C2)cc(C)n1 (mixture of isomers) [Compound 52] |
| 1580 nM |  |  | > 1000 nM | 76% |  | 2% | Cc1cc(C[C@@H]2CCN(C(C)c3nc4nc(C)sc4cc3F)C2)cc(C)n1 (single isomer, unassigned) [Compound 94] |
| 6310 nM | 56% | -2% | > 1000 nM |  |  |  | COc1cc(C[C@@H]2CCN(C(C)c3ccc4sc(C)nc4n3)C2)cc(C)n1 (single isomer, unassigned) [Compound 97] |
| 100 nM | 103% | 77% | 158 nM |  |  |  | Cc1cc(C[C@H]2CCN(C(C)c3cnc4nc(C)oc4c3)C2)cc(C)n1 (some centres unmarked) [Compound 63] |
| 501 nM | 94% | 5% | > 1000 nM |  |  |  | Cc1cc(CO[C@H]2CCCN(C(C)c3ccc4sc(C)nc4n3)C2)cc(C)n1 (single isomer, unassigned) [Compound 67] |
